Data on 1 molecule can be found in US11692194B2, “Modulating expression of polypeptides via new gene switch expression systems” (Precigen, Inc., priority 2017, dated 2023).

The test system of assay [1] is RTS-IL-12 in EGFRvIII-CAR-T cells. Put plainly: IL-12 induction in EGFRvIII-CAR/RTS-IL-12 T cells, ELISA of culture supernatant. Type of assay: cell-based. From the text:
Sleeping Beauty transposons were designed as depicted in FIG. 22 to stably express EGFRvIII-specific CAR, a cell tag and RTS-IL-12. Transposon plasmids were electroporated in several donor T cells as previously described. EGFRvIII-CAR-T cells were selectively expanded ex vivo by successive rounds of stimulations every 7-10 days for up to 4 cycles with either γ-irradiated or mitomycin C treated AaPC that served as “feeder cells” at 1:1 ratio in media supplemented with IL-2 and IL-21. The AaPC cells used were K562-AaPC expressing EGFRvIII antigen. FIG. 26 depicts CAR expression in T cells from multiple donors as the CAR+ T cells are selectively expanded ex vivo.
To assay IL-12 induction in EGFRvIII-CAR-T cells, Pan T-cells at 24 h post nucleofection were treated with DMSO (control) or veledemix in the presence of AaPCs in media containing IL-21. After 48 hours post-nucleofection, culture supernatants were analyzed for IL-12 levels by ELISA.
Furthermore, the ability of RTS-IL-12/CAR-T cells to produce inducible IL-12 was assessed in presence or absence of antigen specific stimulation. EGFRvIII-CAR/RTS-IL-12 T cells were expanded ex vivo by three successive rounds of stimulation with EGFRvIII^+ AaPCs. […]

Assay [2] deals with CD19-specific CAR-T cells co-expressing RTS-mbIL-15. Put plainly: Survival of CD19 CAR/RTS-mbIL-15 T cells upon withdrawal of IL-2 and IL-21. Type of assay: cell-based, human. As to conditions: veledimex 50 nM, ex vivo culture, % live cells by flow. As for the experimental part: Multiple Sleeping Beauty transposon DNA plasmids encoding for RTS-membrane bound IL-15 (RTS-mbIL-15), CD19-specific chimeric antigen receptor (CD19 CAR) (Design 9, FIG. 2) were transfected into peripheral blood mononuclear cells (PBMC) along with plasmid DNA encoding for Sleeping Beauty transposase SB11 via nucleofection (FIG. 1). On day 0, 20 million PBMC were resuspended in 100 μL of Amaxa Human T cell Nucleofector solution (Cat. no. VPA-1002; Lonza, Basel, Switzerland) mixed with a total of 15 μg of transposons and 5 μg of transposase and nucleofected into cells. The following day (day1) cells were counted, and CAR expression was measured using flow cytometry. Cells were stimulated with either γ-irradiated (100 Gy) or mitomycin C treated K562 based AaPCs expressing CD19 on their surface at a 1:1 ratio. Cultures were supplemented with IL-21 (30 ng/ml) only for the first round of stimulation and subsequently with recombinant human IL-2 (50 IU/ml) and IL-21 (30 ng/ml) (Pepro Tech) for remaining stimulations. […] Cultures were also closely monitored for the outgrowth of NK cells (defined as CD3negCD56+ population) and were removed from the CAR T cell cultures when the percentage exceeded 10% of total cell populations using magnetic beads for CD56 (Stem Cell Technologies and/or Miltenyi Biotec), according to the manufacturer's instructions. […]

Each structure is given as a SMILES string.

For the molecule `CCC[C@@H](N(NC(=O)c1cccc(OC)c1CC)C(=O)c1cc(C)cc(C)c1)C(C)(C)C` [veledimex, N-[(1R)-1-(1,1-dimethylethyl)butyl]-N′-(2-ethyl-3-methoxybenzoyl)-3,5-dimethylbenzohydrazide], in assay [1] (100 nM veledimex, 48 hours, after three rounds of stimulation), the “veledimex induced IL-12 with versus without EGFRvIII^+ AaPCs” value is listed as “greatly enhanced in presence of EGFRvIII antigen specific stimulation”. Moreover, the “IL-12 expression in culture supernatant” value in assay [1] (T cells co-expressing CAR and RTS-IL-12, treated 24 h post nucleofection with AaPCs and IL-21) is reported as “induced IL-12 expression”. Also, in assay [2], the “survival of CAR-T cells in absence of cytokines (IL-2 and IL-21)” value is “improved survival of CAR-T cells”.
